Laboratory results from patent US9403830B2, “Inhibitors of leukotriene production” (Boehringer Ingelheim International GmbH, priority 2012, dated 2016).

How the values were obtained:
[1] = target: T1, human LTA4 hydrolase (Homo sapiens, UniProt P09960); assay: LTA4H Enzyme assay (peptidase, Arg-AMC cleavage); format: biochemical; details: LTA4H enzyme 1 nM, Arg-AMC substrate 50 μM, room temperature 1 h, fluorescence 380/460 nm
T1 sequence (P09960 1-611): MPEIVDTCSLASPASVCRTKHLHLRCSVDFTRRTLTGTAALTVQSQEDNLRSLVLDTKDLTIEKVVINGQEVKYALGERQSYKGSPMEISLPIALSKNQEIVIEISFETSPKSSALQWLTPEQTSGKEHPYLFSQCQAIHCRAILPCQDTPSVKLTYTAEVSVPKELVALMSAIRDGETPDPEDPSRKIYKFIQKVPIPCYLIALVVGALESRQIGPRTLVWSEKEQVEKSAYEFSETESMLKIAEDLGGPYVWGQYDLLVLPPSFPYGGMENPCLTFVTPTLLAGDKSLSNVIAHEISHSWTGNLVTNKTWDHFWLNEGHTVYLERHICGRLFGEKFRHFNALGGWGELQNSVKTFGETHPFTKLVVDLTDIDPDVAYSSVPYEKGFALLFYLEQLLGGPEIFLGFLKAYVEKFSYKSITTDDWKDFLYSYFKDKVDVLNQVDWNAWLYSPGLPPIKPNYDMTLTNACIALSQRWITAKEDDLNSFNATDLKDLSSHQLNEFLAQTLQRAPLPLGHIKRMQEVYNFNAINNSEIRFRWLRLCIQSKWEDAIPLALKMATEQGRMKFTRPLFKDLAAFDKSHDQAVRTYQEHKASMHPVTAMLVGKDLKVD
How it was run: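 Human LTA4H (1 nM final) incubated with compound and Arg-AMC (50 μM final) in 50 mM Tris-HCl pH 7.5, 100 mM KCl, 0.5% BSA, 1 h at room temperature. Product read as AMC fluorescence (ex 380/em 460 nm); IC50 reported.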

[2] = tested on: LTB4 synthesis in human whole blood; assay: human whole blood (HWB) assay, inhibition of LTB4 production; format: cell-based; details: heparinized human whole blood, calcimycin 20 μM stimulation, plasma LTB4
How it was run: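 Plasma LTB4, quantified by HTRF immunoassay, is the read-out after calcimycin challenge (20 μM final, 30 min, 37 °C) of heparinized whole blood that had been pretreated with compound for 15 min at 37 °C; values given as IC50.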

SMILES	IC50 [1] [nM]	IC50 [2] [nM]
COC(=O)c1ccc(C2CCN(Cc3nc4cc(Oc5ccc(-c6ccn[nH]6)cc5)ccc4[nH]3)CC2)cc1 [Example 151, 4-(1-{5-[4-(2H-Pyrazol-3-yl)-phenoxy]-1H-benzoimidazol-2-ylmethyl}-piperidin-4-yl)-benzoic acid methyl ester]	0.4	310
O=C(O)c1nc2cc(Oc3ccc(-c4cc[nH]n4)cc3)ccc2[nH]1 [Example 69, 5-[4-(1H-Pyrazol-3-yl)-phenoxy]-1H-benzoimidazole-2-carboxylic acid]	3.9	650
O=C1CCCCN1C1CCN(Cc2ccc3cc(Oc4ccc(-c5ccn[nH]5)cn4)ccc3n2)CC1 [Example 209, 1′-{6-[5-(2H-Pyrazol-3-yl)-pyridin-2-yloxy]-quinolin-2-ylmethyl}-[1,4′]bipiperidinyl-2-one]	0.66	220
CN1CCC[C@H]1Cc1nc2cc(Oc3ccc(-c4ccn[nH]4)cc3)ccc2[nH]1 [Example 89, 2-((S)-1-Methyl-pyrrolidin-2-ylmethyl)-5-[4-(2H-pyrazol-3-yl)-phenoxy]-1H-benzoimidazole]	0.086	130
CC(=O)N1CCN(CCCn2cc3cc(Oc4ccc(-c5ccn[nH]5)cc4)ccc3n2)CC1 [Example 95, 1-[4-(3-{5-[4-(2H-Pyrazol-3-yl)-phenoxy]-indazol-2-yl}-propyl)-piperazin-1-yl]-ethanone]	0.83	150
O=C(CO)N1C2CCC1CN(Cc1ccc3cc(Oc4ccc(-c5ccn[nH]5)cn4)ccc3n1)C2 [Example 44, 2-Hydroxy-1-(3-{6-[5-(2H-pyrazol-3-yl)-pyridin-2-yloxy]-quinolin-2-ylmethyl}-3,8-diaza-bicyclo[3.2.1]oct-8-yl)-ethanone]	0.71	410
O=C1OC[C@@H]2CN(Cc3ccc4cc(Oc5ccc(-c6ccn[nH]6)cn5)ccc4n3)CCN12 [Example 16, (S)-7-{6-[5-(2H-pyrazol-3-yl)-pyridin-2-yloxy]-quinolin-2-ylmethyl}-hexahydro-oxazolo[3,4-a]pyrazin-3-one]	1.1	250
O=C1CC[C@@H](Cn2cc3cc(Oc4ccc(-c5ccn[nH]5)cc4)ccc3n2)N1 [Example 251, (S)-5-{5-[4-(2H-Pyrazol-3-yl)-phenoxy]-indazol-2-ylmethyl}-pyrrolidin-2-one]	0.87	220
c1cc(-c2ccc(Oc3ccc4cc(CN5CCCC5)oc4c3)nc2)[nH]n1 [Example 127, 5-(2H-Pyrazol-3-yl)-2-(2-pyrrolidin-1-ylmethyl-benzofuran-6-yloxy)-pyridine]	0.68	130
C[C@H]1COCCN1Cc1nc2cc(Oc3ccc(-c4ccn[nH]4)cc3)ccc2[nH]1 [Example 62, 2-((S)-3-Methyl-morpholin-4-ylmethyl)-5-[4-(2H-pyrazol-3-yl)-phenoxy]-1H-benzoimidazole]	0.13	150
c1cc(-c2ccc(Oc3ccc4nc(CN5CCCC5)cn4c3)cc2)[nH]n1 [Example 246, 6-[4-(2H-Pyrazol-3-yl)-phenoxy]-2-pyrrolidin-1-ylmethyl-imidazo[1,2-a]pyridine]	0.17	180
CCC(=O)N1CCN(Cc2ccc3cc(Oc4ccc(-c5ccn[nH]5)cn4)ccc3n2)CC1 [Example 29, 1-(4-{6-[5-(2H-Pyrazol-3-yl)-pyridin-2-yloxy]-quinolin-2-ylmethyl}-piperazin-1-yl)-propan-1-one]	0.66	190
CC[C@H](C)N(C)Cc1nc2cc(Oc3ccc(-c4ccn[nH]4)cc3)ccc2[nH]1 [Example 74, ((S)-sec-butyl)-methyl-{5-[4-(2H-pyrazol-3-yl)-phenoxy]-1H-benzoimidazol-2-ylmethyl}-amine]	0.099	67
NC(=O)C1CCN(CC2CCc3ccc(Oc4ccc(-c5ccn[nH]5)cn4)cc3O2)CC1 (stereo not shown) [Example 9, 1-{7-[5-(2H-Pyrazol-3-yl)-pyridin-2-yloxy]-chroman-2-ylmethyl}-piperidine-4-carboxylic acid amide]	4.2	1300
O=C(C1CCN(CC2Cc3ccc(Oc4ccc(-c5ccn[nH]5)cc4)cc3O2)CC1)N1CCOCC1 (stereo not shown) [Example 187, Morpholin-4-yl-(1-{6-[4-(2H-pyrazol-3-yl)-phenoxy]-2,3-dihydro-benzofuran-2-ylmethyl}-piperidin-4-yl)-methanone]	0.31	150
O=C(CO)N1C[C@H]2C[C@@H]1CN2Cc1ccc2cc(Oc3ccc(-c4ccn[nH]4)cn3)ccc2n1 [Example 145, 2-Hydroxy-1-((1R,4R)-5-{6-[5-(2H-pyrazol-3-yl)-pyridin-2-yloxy]-quinolin-2-ylmethyl}-2,5-diaza-bicyclo[2.2.1]hept-2-yl)-ethanone]	0.4	210
CC(=O)N1CCN(Cc2coc3cc(Oc4ccc(-c5ccn[nH]5)cn4)ccc23)CC1 [Example 149, 1-(4-{6-[5-(2H-Pyrazol-3-yl)-pyridin-2-yloxy]-benzofuran-3-ylmethyl}-piperazin-1-yl)-ethanone]	1.2	250
CC(=O)N1CCN(CCC2COc3cc(Oc4ccc(-c5ccn[nH]5)cn4)ccc32)CC1 (stereo not shown) [Example 143, 1-[4-(2-{6-[5-(2H-Pyrazol-3-yl)-pyridin-2-yloxy]-2,3-dihydro-benzofuran-3-yl}-ethyl)-piperazin-1-yl]-ethanone]	0.85	230
COC1CCN(Cc2nc3cc(Oc4ccc(-c5ccn[nH]5)cc4)ccc3[nH]2)C1 (stereo not shown) [Example 157, 2-(3-Methoxy-pyrrolidin-1-ylmethyl)-5-[4-(2H-pyrazol-3-yl)-phenoxy]-1H-benzoimidazole]	0.11	98
CCN(CCO)Cc1nc2cc(Oc3ccc(-c4ccn[nH]4)cc3)ccc2[nH]1 [Example 192, 2-(Ethyl-{5-[4-(2H-pyrazol-3-yl)-phenoxy]-1H-benzoimidazol-2-ylmethyl}-amino)-ethanol]	0.17	170
O=C1CCC2(CCN(Cc3ccc4cc(Oc5ccc(-c6ccn[nH]6)cn5)ccc4n3)CC2)N1 [Example 30, 8-{6-[5-(2H-Pyrazol-3-yl)-pyridin-2-yloxy]-quinolin-2-ylmethyl}-1,8-diaza-spiro[4.5]decan-2-one]	1.1	190
c1cc(-c2ccc(Oc3ccc4[nH]c(CN5CCSCC5)nc4c3)cc2)[nH]n1 [Example 98, 5-[4-(2H-Pyrazol-3-yl)-phenoxy]-2-thiomorpholin-4-ylmethyl-1H-benzoimidazole]	0.18	160
c1cc(-c2ccc(Oc3ccc4nc(CN5CCCCCC5)ccc4c3)nc2)[nH]n1 [Example 22, 2-Azepan-1-ylmethyl-6-[5-(2H-pyrazol-3-yl)-pyridin-2-yloxy]-quinoline]	0.36	89
N#C[C@@H]1CCN(Cc2ccc3cc(Oc4ccc(-c5ccn[nH]5)cn4)ccc3n2)C1 [Example 107, (R)-1-{6-[5-(2H-Pyrazol-3-yl)-pyridin-2-yloxy]-quinolin-2-ylmethyl}-pyrrolidine-3-carbonitrile]	2	220
c1cc(-c2ccc(Oc3ccc4nc(CN5CCC6(COC6)C5)ccc4c3)nc2)[nH]n1 [Example 20, 2-(2-Oxa-6-aza-spiro[3.4]oct-6-ylmethyl)-6-[5-(2H-pyrazol-3-yl)-pyridin-2-yloxy]-quinoline]	0.3	82
CC1(O)CN(Cc2ccc3cc(Oc4ccc(-c5ccn[nH]5)cn4)ccc3n2)C1 [Example 174, 3-Methyl-1-{6-[5-(2H-pyrazol-3-yl)-pyridin-2-yloxy]-quinolin-2-ylmethyl}-azetidin-3-ol]	0.65	140
COC[C@H](C)N(C)Cc1nc2cc(Oc3ccc(-c4ccn[nH]4)cc3)ccc2[nH]1 [Example 82, ((S)-2-Methoxy-1-methyl-ethyl)-methyl-{5-[4-(2H-pyrazol-3-yl)-phenoxy]-1H-benzoimidazol-2-ylmethyl}-amine]	0.077	110
OC1CCN(Cc2ccc3cc(Oc4ccc(-c5ccn[nH]5)cn4)ccc3c2)CC1 [Example 4, 1-{6-[5-(2H-Pyrazol-3-yl)-pyridin-2-yloxy]-naphthalen-2-ylmethyl}-piperidin-4-ol]	0.54	190
c1cc(-c2ccc(Oc3ccc4[nH]c(CN5C[C@@H]6CC[C@@H](C5)O6)nc4c3)cc2)[nH]n1 [Example 58, (1S,5S)-3-{5-[4-(2H-Pyrazol-3-yl)-phenoxy]-1H-benzoimidazol-2-ylmethyl}-8-oxa-3-aza-bicyclo[3.2.1]octane]	0.13	120
